Laboratory results taken from ChEMBL document CHEMBL1201862, “PubChem BioAssay data set” (2004).
Active and inactive are the calls of the source. For most assays here, no stated cut-off is given here; in the data, actives have a measured IC50 and inactives only a lower limit.

Columns and labels:
[1] = molecular target: T1, Tyrosine-protein phosphatase non-receptor type 7 (Homo sapiens, UniProt P35236); assay: redox-active compounds inhibiting HePTP phosphatase – biochemical, fluorescence, mechanism study (AID 2068); assay type: functional
T1 sequence (P35236 whole entry): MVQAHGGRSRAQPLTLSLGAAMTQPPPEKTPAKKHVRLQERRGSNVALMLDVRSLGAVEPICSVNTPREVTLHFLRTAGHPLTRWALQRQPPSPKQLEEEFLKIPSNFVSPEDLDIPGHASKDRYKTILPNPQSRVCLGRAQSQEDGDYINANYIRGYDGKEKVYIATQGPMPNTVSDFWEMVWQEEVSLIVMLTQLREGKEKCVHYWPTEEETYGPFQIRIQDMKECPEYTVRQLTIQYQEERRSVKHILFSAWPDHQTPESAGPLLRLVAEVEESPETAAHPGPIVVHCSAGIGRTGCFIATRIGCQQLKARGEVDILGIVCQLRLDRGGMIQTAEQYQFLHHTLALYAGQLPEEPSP

[2] = molecular target: T2, Dual specificity protein phosphatase 3 (Homo sapiens, UniProt P51452); assay: SAR VHR1 absorbance Assay for In Vitro dose response studies. [Related pubchem assays (depositor defined):AID1654, AID1661, AID1878, AID1992, AID2004]
[3] = molecular target: T3, Dual specificity protein phosphatase 6 (Rattus norvegicus, UniProt Q64346); assay type: functional;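 further: confirmatory in vitro dose-response testing of MKP-3 inhibition; recombinant His-tagged MKP-3 made in E. coli BL21 with OMFP substrate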
T3 sequence (Q64346 whole entry): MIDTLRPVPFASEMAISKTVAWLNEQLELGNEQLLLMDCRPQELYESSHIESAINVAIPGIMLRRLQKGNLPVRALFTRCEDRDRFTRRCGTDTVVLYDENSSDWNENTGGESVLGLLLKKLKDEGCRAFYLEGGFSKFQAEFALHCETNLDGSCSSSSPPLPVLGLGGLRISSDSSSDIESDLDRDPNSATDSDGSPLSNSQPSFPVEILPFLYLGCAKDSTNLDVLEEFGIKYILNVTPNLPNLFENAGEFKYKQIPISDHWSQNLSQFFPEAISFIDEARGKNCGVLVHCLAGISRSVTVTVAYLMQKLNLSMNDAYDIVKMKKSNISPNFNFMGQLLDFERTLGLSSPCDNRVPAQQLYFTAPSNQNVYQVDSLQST

[4] = molecular target: T2, Dual specificity protein phosphatase 3; assay: SAR VHR1 Fluorescent Assay for In Vitro dose response studies. [Related pubchem assays (depositor defined):AID1654, AID1661, AID1878, AID1992, AID2004, AID2070, AID2085]; assay type: functional
[5] = molecular target: G-protein coupled receptor 55 (Homo sapiens, UniProt Q9Y2T6); assay: SAR Analysis of Selective Antagonists of GPR55 using an Image-Based Assay - Set 3. [Related pubchem assays (depositor defined):AID2058, AID2079]; assay type: functional
[6] = molecular target: G-protein coupled receptor 35 (Homo sapiens, UniProt Q9HC97); assay: SAR analysis of Antagonists of the GPR35 Receptor using an Image-Based Assay - Set 5. [Related pubchem assays (depositor defined):AID2058, AID2079]; assay type: functional
[7] = molecular target: Large T antigen (Simian virus 40, UniProt P03070); assay type: functional, Betapolyomavirus macacae;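 further: Confirmatory-stage PubChem screen for compounds that inhibit SV40 T antigen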
[8] = molecular target: DNA dC->dU-editing enzyme APOBEC-3A (Homo sapiens, UniProt P31941); assay: A3A deaminase inhibition for selectivity – biochemical, dose response (AID 504722); assay type: functional
[9] = molecular target: DNA dC->dU-editing enzyme APOBEC-3G (Homo sapiens, UniProt Q9HC16); assay: Dose Response confirmation of small molecule APOBEC3G DNA Deaminase Inhibitors via a fluorescence-based single-stranded DNA deaminase assay. [Related pubchem assays (depositor defined):AID493012, AID493028]; assay type: functional
[10] = molecular target: Troponin, cardiac muscle (Homo sapiens, UniProt P19429+P45379+P63316); assay: Fluorescence-based biochemical high throughput dose response assay for activators of the calcium sensitivity of cardiac Regulated Thin Filaments (RTF). [Related pubchem assays (depositor defined):AID493008, AID493018, AID504382, AID504383]; assay type: protein-complex assay

T2 sequence (P51452 whole entry): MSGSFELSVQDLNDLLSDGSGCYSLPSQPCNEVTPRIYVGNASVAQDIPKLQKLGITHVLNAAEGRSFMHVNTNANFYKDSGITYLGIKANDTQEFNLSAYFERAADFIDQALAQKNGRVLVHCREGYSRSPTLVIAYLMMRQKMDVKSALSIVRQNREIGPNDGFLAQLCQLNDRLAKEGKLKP
Sequence of Large T antigen (P03070 whole entry): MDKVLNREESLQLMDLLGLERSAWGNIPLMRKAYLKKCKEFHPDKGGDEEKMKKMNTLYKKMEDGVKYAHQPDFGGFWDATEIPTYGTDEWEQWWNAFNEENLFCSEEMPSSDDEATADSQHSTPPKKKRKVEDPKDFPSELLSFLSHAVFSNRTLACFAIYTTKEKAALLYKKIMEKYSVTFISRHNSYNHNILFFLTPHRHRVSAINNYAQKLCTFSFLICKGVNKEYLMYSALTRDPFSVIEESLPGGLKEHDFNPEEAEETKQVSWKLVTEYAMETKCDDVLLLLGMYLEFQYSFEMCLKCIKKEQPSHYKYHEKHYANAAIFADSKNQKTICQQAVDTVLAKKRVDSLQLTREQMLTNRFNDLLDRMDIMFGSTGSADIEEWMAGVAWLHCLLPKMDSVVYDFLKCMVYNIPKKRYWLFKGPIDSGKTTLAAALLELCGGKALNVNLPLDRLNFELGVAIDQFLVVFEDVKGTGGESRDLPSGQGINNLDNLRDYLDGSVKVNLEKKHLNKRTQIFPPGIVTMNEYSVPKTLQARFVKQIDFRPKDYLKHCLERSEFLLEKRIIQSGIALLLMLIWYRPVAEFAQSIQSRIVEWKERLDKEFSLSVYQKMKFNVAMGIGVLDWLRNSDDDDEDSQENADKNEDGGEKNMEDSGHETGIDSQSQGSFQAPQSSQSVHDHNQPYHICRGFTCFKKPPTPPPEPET
Sequence of G-protein coupled receptor 55 (Q9Y2T6 whole entry): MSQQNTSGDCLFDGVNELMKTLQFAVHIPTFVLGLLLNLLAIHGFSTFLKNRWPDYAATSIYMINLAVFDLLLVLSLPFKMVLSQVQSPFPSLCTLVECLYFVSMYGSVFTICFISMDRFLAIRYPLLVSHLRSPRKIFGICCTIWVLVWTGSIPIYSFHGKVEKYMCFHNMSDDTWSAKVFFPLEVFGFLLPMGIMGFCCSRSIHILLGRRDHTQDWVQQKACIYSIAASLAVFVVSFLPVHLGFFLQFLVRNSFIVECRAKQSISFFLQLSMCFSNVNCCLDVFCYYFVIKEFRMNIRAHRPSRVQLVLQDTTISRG
Sequence of DNA dC->dU-editing enzyme APOBEC-3A (P31941 whole entry): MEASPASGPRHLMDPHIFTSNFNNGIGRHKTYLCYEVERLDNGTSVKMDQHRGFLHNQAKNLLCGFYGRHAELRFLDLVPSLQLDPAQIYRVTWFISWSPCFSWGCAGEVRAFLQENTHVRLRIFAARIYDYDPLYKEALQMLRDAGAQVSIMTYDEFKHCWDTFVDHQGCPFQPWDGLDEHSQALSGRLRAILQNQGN
Sequence of DNA dC->dU-editing enzyme APOBEC-3G (Q9HC16 whole entry): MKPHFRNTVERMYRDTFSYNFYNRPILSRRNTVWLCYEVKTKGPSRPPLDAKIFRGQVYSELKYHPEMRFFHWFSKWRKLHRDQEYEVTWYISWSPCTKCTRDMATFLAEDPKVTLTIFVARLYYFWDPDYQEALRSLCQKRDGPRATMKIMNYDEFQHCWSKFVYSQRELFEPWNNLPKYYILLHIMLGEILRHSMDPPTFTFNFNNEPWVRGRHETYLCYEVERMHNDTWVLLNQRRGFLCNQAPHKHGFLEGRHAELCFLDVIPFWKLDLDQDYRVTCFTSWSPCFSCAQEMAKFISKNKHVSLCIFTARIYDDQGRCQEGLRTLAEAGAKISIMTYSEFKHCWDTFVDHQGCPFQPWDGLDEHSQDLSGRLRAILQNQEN
Sequence of G-protein coupled receptor 35 (Q9HC97 whole entry): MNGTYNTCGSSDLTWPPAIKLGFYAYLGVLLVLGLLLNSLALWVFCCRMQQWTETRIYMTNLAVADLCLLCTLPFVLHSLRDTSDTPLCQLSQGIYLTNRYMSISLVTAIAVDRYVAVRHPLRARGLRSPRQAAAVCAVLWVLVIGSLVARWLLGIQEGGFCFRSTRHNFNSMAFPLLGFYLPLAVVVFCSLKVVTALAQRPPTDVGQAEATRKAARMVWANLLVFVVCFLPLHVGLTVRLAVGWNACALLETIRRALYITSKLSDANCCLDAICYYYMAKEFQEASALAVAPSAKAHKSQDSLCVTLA

Structure (SMILES): S=C(c1cn(CCOc2ccccc2)c2ccccc12)N1CCOCC1
- IC50 [1]: 2.35 µM (active)
- IC50 [2]: > 100 µM (inactive)
- IC50 [3]: > 99 µM (inactive)
- IC50 [4]: > 99 µM (inactive)

Structure (SMILES): COc1ccc(-c2n[nH]cc2/C=N/NC(=S)NC(C)(C)C)cc1
- IC50 [5]: 16.4 µM (inactive)
- IC50 [6]: > 32 µM (inactive)

Structure (SMILES): Cc1cccc(/C=N/n2c(S)nnc2-c2ccncc2)c1
- IC50 [7]: 43.7 µM (active)
- IC50 [8]: > 100 µM (inactive)
- IC50 [9]: 2.62 µM (active)
- EC50 [10]: > 71.5 µM (inactive)
